Assay results as given in patent publication US12138256B2, “Treatment of cardiopulmonary disorders” (Bayer Aktiengesellschaft, priority 2021, dated 2024).
Several values for one entry are separate records, joined by “and”; a condition that tells them apart may be missing. Equal entries are not always repeated.

What was measured:
[1] = test system: thromboxane analog U46619 induced PAH in minipigs; assay: Haemodynamics (PAP, BP) in the anesthetized thromboxane challenged PAH minipig after inhaled (nebulized) application (C-2.1); assay type: in vivo, Göttingen minipig; settings: inhaled; for BP % change vs. baseline / PAP % change vs. baseline: 100 μg/kg nominal dose, individual animals
Description: Experiments were carried out in anesthetized Göttingen minipigs, anesthetized rats and conscious, telemetrically instrumented dogs. Acute pulmonary hypertension was induced for example by infusion of a thromboxane A2 analogon, by acute hypoxia treatment or hypoxia treatment over a number of weeks and/or by administration of monocrotaline. Test substances were applied via nebulization using the Nebutec® or Aeroneb® Pro nebulizer system, and/or by means of powder and/or solution applicators for experimental intratracheal administration (Liquid MicroSprayer®, Dry Powder Insufflator™, MicroSprayer®, Penn-Century Inc., Wyndmoor, PA, USA) or after solid nebulization inserted into the inspiration arm of the ventilation. Compounds were employed as solids or solutions depending on the molecular structure and the technical possibility depending on the experiment. The haemodynamic signals were recorded and evaluated by means of pressure transducers/amplifiers (Combitransducer B. Braun, Melsungen, Germany or CardioMEMS Inc., Atlanta, GA, USA) and Ponemah® or CardioMems® as data aquisition software. After long-term experiments (for example monocrotaline rat), it is also possible to carry out a histological evaluation.
Healthy Gottingen Minipigs® Ellegaard (Ellegaard, Denmark) of both sexes and having a weight of 2-6 kg were used. The animals were sedated by i.m. administration of about 25 mg/kg ketamine and about 10 mg/kg azaperone. Anaesthesia was initiated by i.v. administration of about 2 mg/kg ketamine and about 0.3 mg/kg midazolam. Maintenance of anaesthesia was by i.v. administration of about 7.5-30 mg/kg/h ketamine and about 1-4 mg/kg/h midazolam (rate of infusion 1-4 ml/kg/h) and about 150 μg/kg/h pancuronium bromide (for example Pancuronium-Actavis). After intubation, the animals were ventilated by the ventilator at a constant respiratory volume (10-12 ml/kg, 35 breaths/min; Avea®, Viasys Healthcare, USA, or Engstrom Carestation, GE Healthcare, Freiburg, Germany) such that an end-tidal CO2 concentration of about 5% was achieved. Ventilation was performed with room air, enriched with about 40% oxygen (normoxia). For the measurement of the haemodynamic parameters such as pulmonary arterial pressure (PAP), blood pressure (BP) and heart rate (HR), catheters were inserted into the carotid artery to measure the blood pressure, and a Swan-Ganz® catheter was introduced in a flow-directed manner via the jugular vein into the pulmonary artery. The haemodynamic signals were recorded and evaluated by means of pressure transducers (Combitransducer, B. Braun, Melsungen, Germany)/amplifiers and Ponemah® as data aquisition software.
After the instruments have been placed into the animals, continuous infusion of a thromboxane A2 analog was initiated to increase the pulmonary arterial pressure. […] D0400, or Cayman Chemical Company, cat. no. 16440), dissolved in physiological saline, were infused to achieve an increase of the mean pulmonary arterial pressure to values of over 25 mmHg. 30 minutes after the start of the infusion, a plateau was reached, and the experiment was started.
The test substances were administered as i.v. infusion or by inhalation. For the preparation of the solution for inhalation, the following procedure was adopted: For an animal having a weight of 4 kg, to prepare the stock solution (300 μg/kg), 1.2 mg of the test compound were weighed out and dissolved in a total volume of 3 ml (1% DMSO, 99% 0.2% strength citric acid solution, 1 N aqueous sodium hydroxide solution to adjust the pH to 8). The solution was then diluted to the concentration employed using 0.2% strength citric acid which had been adjusted to pH 8 beforehand with aqueous sodium hydroxide solution. In each test, 3 ml of the solution of test compound per 4 kg animal were nebulized in the inhalation arm of the respiratory circuit using the Aeroneb® Pro nebulizer system. The mean nebulization time was about 7 min from the start of the nebulization.

[2] = Thermal stability of the solid (90° C., 7 days, HPLC peak areas); assay type: physicochemical
Description: 0.3 mg of the test compound, e.g. comparative example 11 were solved in 0.1 ml dimethylsulfoxide and 0.4 ml acetonitrile. Then 1.0 ml water was added. For complete dissolution the HPLC vial was shaken and sonicated. This solution was immediately analyzed by HPLC (reference at t0). 0.3 mg of the test compound was weighed into another HPLC vial. The vial was capped and stored for 7 days in a heating block at 90° C.
After this time the vial was decapped and 0.1 ml dimethylsulfoxide and 0.4 ml acetonitrile were added to the stressed compound. Then 1.0 ml water was added. For complete dissolution the HPLC vial was shaken and sonicated. The sample was analyzed by HPLC (sample after 1 week). The peak areas in percentage are used for quantification.

thermal stability [2]: limited thermal stability
SMILES: Cc1ccc2oc(-c3ccc(COc4ccccc4CCN(CCCCC(=O)O)C4CCCc5nc(C(=O)O)ccc54)cc3)nc2c1 (single isomer, unassigned; (+)) [comparative example 5, (+)-5-{(4-Carboxybutyl)[2-(2-{[4-(5-methyl-1,3-benzoxazol-2-yl)benzyl]oxy}phenyl)ethyl]amino}-5,6,7,8-tetrahydroquinoline-2-carboxylic acid]
BP % change vs. baseline ([1]; time 80 min): 100.0%
PAP % change vs. baseline ([1]; time 80 min): 100.0%
BP % change vs. baseline ([1]; time 90 min): 100.0%
PAP % change vs. baseline ([1]; time 90 min): 101.5% and 99.2% and 102.0%
BP % change vs. baseline ([1]; time 100 min): 99.1% and 97.7% and 101.8%
PAP % change vs. baseline ([1]; time 100 min): 98.0% and 90.0% and 93.8%
BP % change vs. baseline ([1]; time 110 min): 99.1% and 97.7% and 100.0%
PAP % change vs. baseline ([1]; time 110 min): 91.7% and 86.4% and 79.0%
BP % change vs. baseline ([1]; time 120 min): 99.1% and 96.6% and 97.3%
PAP % change vs. baseline ([1]; time 120 min): 90.0% and 86.1% and 73.7%
BP % change vs. baseline ([1]; time 130 min): 98.1% and 97.7% and 97.3%
PAP % change vs. baseline ([1]; time 130 min): 87.6% and 88.6% and 72.9%
BP % change vs. baseline ([1]; time 140 min): 98.1% and 98.9% and 97.3%
PAP % change vs. baseline ([1]; time 140 min): 87.1% and 93.0% and 73.7%
BP % change vs. baseline ([1]; time 150 min): 95.3% and 100.0% and 97.3%
PAP % change vs. baseline ([1]; time 150 min): 87.6% and 95.0% and 75.1%
BP % change vs. baseline ([1]; time 160 min): 96.2% and 101.1% and 98.2%
PAP % change vs. baseline ([1]; time 160 min): 88.7% and 96.4% and 77.8%
BP % change vs. baseline ([1]; time 170 min): 95.3% and 101.1% and 96.4%
PAP % change vs. baseline ([1]; time 170 min): 89.8% and 97.8% and 79.2%
BP % change vs. baseline ([1]; time 180 min): 95.3% and 101.1% and 97.3%
PAP % change vs. baseline ([1]; time 180 min): 90.0% and 100.6% and 81.5%
BP % change vs. baseline ([1]; time 190 min): 94.3% and 102.3% and 96.4%
PAP % change vs. baseline ([1]; time 190 min): 90.9% and 101.9% and 81.9%
BP % change vs. baseline ([1]; time 200 min): 92.5% and 103.4% and 95.5%
PAP % change vs. baseline ([1]; time 200 min): 91.4% and 102.8% and 85.2%
BP % change vs. baseline ([1]; time 210 min): 91.5% and 102.3% and 96.4%
PAP % change vs. baseline ([1]; time 210 min): 92.7% and 104.2% and 88.1%
BP % change vs. baseline ([1]; time 220 min): 91.5% and 103.4% and 96.4%
PAP % change vs. baseline ([1]; time 220 min): 94.5% and 105.8% and 91.3%
BP % change vs. baseline ([1]; time 230 min): 91.5% and 103.4% and 94.6%
PAP % change vs. baseline ([1]; time 230 min): 95.1% and 106.1% and 93.1%
BP % change vs. baseline ([1]; time 240 min): 90.6% and 102.3% and 94.6%
PAP % change vs. baseline ([1]; time 240 min): 95.5% and 105.8% and 92.9%
BP % change vs. baseline ([1]; time 250 min): 90.6% and 102.3% and 94.6%
PAP % change vs. baseline ([1]; time 250 min): 96.5% and 105.8% and 94.3%
BP % change vs. baseline ([1]; time 260 min): 89.6% and 101.1% and 93.8%
PAP % change vs. baseline ([1]; time 260 min): 98.1% and 106.4% and 95.5%
BP % change vs. baseline ([1]; time 270 min): 90.6% and 103.4% and 93.8%
PAP % change vs. baseline ([1]; time 270 min): 98.6% and 107.5% and 95.9%
BP % change vs. baseline ([1]; time 280 min): 89.6% and 100.0% and 93.8%
PAP % change vs. baseline ([1]; time 280 min): 98.6% and 106.4% and 97.2%
BP % change vs. baseline ([1]; time 290 min): 88.7% and 102.3% and 92.9%
PAP % change vs. baseline ([1]; time 290 min): 99.6% and 105.8% and 98.4%
BP % change vs. baseline ([1]; time 300 min): 89.6% and 100.0% and 92.0%
PAP % change vs. baseline ([1]; time 300 min): 100.1% and 107.0% and 98.6%
BP % change vs. baseline ([1]; time 310 min): 89.6% and 100.0% and 91.1%
PAP % change vs. baseline ([1]; time 310 min): 101.7% and 107.5% and 99.6%
BP % change vs. baseline ([1]; time 320 min): 89.6% and 105.7% and 91.1%
PAP % change vs. baseline ([1]; time 320 min): 102.8% and 109.5% and 100.1%
BP % change vs. baseline ([1]; time 330 min): 89.6% and 98.9% and 89.3%
PAP % change vs. baseline ([1]; time 330 min): 102.9% and 106.1% and 99.3%
duration of action ([1]; nominal dose of 100 μg/kg): only a moderate duration of action
lung selectivity ([1]; nominal dose of 100 μg/kg): good lung selectivity
